Assay results reported in PubChem BioAssay AID1963421 (Molecular Pharmacology Branch, DTP, NCI, 2024).
Values belong to the compound of their own block, whether it stands above or below them.

Tested on: 519858-162-T-J1-PDC complex spheroid growth, % test/control
Experiment: Anticancer human tumor 519858-162-T-J1-PDC patient-derived colon adenocarcinoma cell line growth inhibition [Asc]
Conditions: for IC50: curve of first compound; for viability, T/C: stronger effect = lower value
How it was run: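 Tumor cells were grown as complex spheroids with human endothelial cells (HUVEC) and human mesenchymal stem cells as stroma. Agents were tested alone and in combination, in half-log steps down from the clinical Cmax, or from 10 microM where Cmax was unknown.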

[1] = second compound 0.0316 µM, first compound 0.0316 µM
[2] = second compound 0.0316 µM, first compound 0.1 µM
[3] = second compound 0.1 µM, first compound 0.0316 µM
[4] = second compound 0.1 µM, first compound 0.1 µM
[5] = second compound 0.316 µM, first compound 0.0316 µM
[6] = second compound 0.316 µM, first compound 0.1 µM
[7] = second compound 1 µM, first compound 0.0316 µM
[8] = second compound 1 µM, first compound 0.1 µM
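Further: seven day drug exposure begun three days after spheroid seeding.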
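Wherever viability, T/C is given: 100% = DMSO vehicle wells and lower values mean less viable spheroid.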

IC50 (second compound 0.0316 µM): > 10 µM
IC50 (second compound 0.1 µM): > 10 µM
IC50 (second compound 0.316 µM): > 10 µM
IC50 (second compound 1 µM): > 10 µM
IC50 (second compound 3.16 µM): > 10 µM
IC50 (second compound 10 µM): > 10 µM
Structure (SMILES): C#Cc1c(F)ccc2cc(O)cc(-c3ncc4c(N5CC6CCC(C5)N6)nc(OCC56CCCN5CC(F)C6)nc4c3F)c12 (stereo unspecified) + Cc1c(S(C)(=O)=O)c(-c2cc(F)cc(N3CCN(c4ccc(NS(=O)(=O)c5ccc(NC(CCN6CCC(C(=O)OCCCP(=O)(O)O)CC6)CSc6ccccc6)c(S(=O)(=O)C(F)(F)F)c5)cc4)CC3)c2)c(-c2ccc(Cl)cc2)n1C(C)C
viability, T/C [1]: 117%
viability, T/C [2]: 88.2%
viability, T/C (second compound 0.0316 µM, first compound 0.316 µM): 89.7%
viability, T/C (second compound 0.0316 µM, first compound 1 µM): 89.5%
viability, T/C (second compound 0.0316 µM, first compound 3.16 µM): 81.6%
viability, T/C (second compound 0.0316 µM, first compound 10 µM): 83.9%
viability, T/C [3]: 60.5%
viability, T/C [4]: 109%
viability, T/C (second compound 0.1 µM, first compound 0.316 µM): 105%
viability, T/C (second compound 0.1 µM, first compound 1 µM): 99.7%
viability, T/C (second compound 0.1 µM, first compound 3.16 µM): 87.1%
viability, T/C (second compound 0.1 µM, first compound 10 µM): 89.6%
viability, T/C [5]: 88.2%
viability, T/C [6]: 88.3%
viability, T/C (second compound 0.316 µM, first compound 0.316 µM): 82.6%
viability, T/C (second compound 0.316 µM, first compound 1 µM): 77.3%
viability, T/C (second compound 0.316 µM, first compound 3.16 µM): 64.6%
viability, T/C (second compound 0.316 µM, first compound 10 µM): 56.9%
viability, T/C [7]: 84.4%
viability, T/C [8]: 75.1%
viability, T/C (second compound 1 µM, first compound 0.316 µM): 84%
viability, T/C (second compound 1 µM, first compound 1 µM): 58.2%
viability, T/C (second compound 1 µM, first compound 3.16 µM): 78.7%
viability, T/C (second compound 1 µM, first compound 10 µM): 82.7%
viability, T/C (second compound 3.16 µM, first compound 0.0316 µM): 70.6%
viability, T/C (second compound 3.16 µM, first compound 0.1 µM): 79.9%
viability, T/C (second compound 3.16 µM, first compound 0.316 µM): 58.9%
viability, T/C (second compound 3.16 µM, first compound 1 µM): 57.3%
viability, T/C (second compound 3.16 µM, first compound 3.16 µM): 95.8%
viability, T/C (second compound 3.16 µM, first compound 10 µM): 67.8%
viability, T/C (second compound 10 µM, first compound 0.0316 µM): 62.9%
viability, T/C (second compound 10 µM, first compound 0.1 µM): 66.2%
viability, T/C (second compound 10 µM, first compound 0.316 µM): 65.9%
viability, T/C (second compound 10 µM, first compound 1 µM): 56.6%
viability, T/C (second compound 10 µM, first compound 3.16 µM): 60.1%
viability, T/C (second compound 10 µM, first compound 10 µM): 77.5%

IC50 (second compound 0.00316 µM): > 0.1 µM
IC50 (second compound 0.01 µM): > 0.1 µM
IC50 (second compound 0.0316 µM): > 0.1 µM
IC50 (second compound 0.1 µM): > 0.1 µM
IC50 (second compound 0.316 µM): > 0.1 µM
IC50 (second compound 1 µM): > 0.1 µM
Structure (SMILES): NC1CCC(NC2CC2c2ccccc2)CC1 (stereo unspecified) + CNC(C)C(=O)NC1CN(S(=O)(=O)c2cccc(S(=O)(=O)N3CCC4CCC(C(=O)NC(c5ccccc5)c5ccccc5)N4C(=O)C(NC(=O)C(C)NC)C3)c2)CCC2CCC(C(=O)NC(c3ccccc3)c3ccccc3)N2C1=O
viability, T/C (second compound 0.00316 µM, first compound 0.000316 µM): 106%
viability, T/C (second compound 0.00316 µM, first compound 0.001 µM): 90.1%
viability, T/C (second compound 0.00316 µM, first compound 0.00316 µM): 117%
viability, T/C (second compound 0.00316 µM, first compound 0.01 µM): 112%
viability, T/C (second compound 0.00316 µM, first compound 0.0316 µM): 92.4%
viability, T/C (second compound 0.00316 µM, first compound 0.1 µM): 85.3%
viability, T/C (second compound 0.01 µM, first compound 0.000316 µM): 129%
viability, T/C (second compound 0.01 µM, first compound 0.001 µM): 83.7%
viability, T/C (second compound 0.01 µM, first compound 0.00316 µM): 112%
viability, T/C (second compound 0.01 µM, first compound 0.01 µM): 88.5%
viability, T/C (second compound 0.01 µM, first compound 0.0316 µM): 109%
viability, T/C (second compound 0.01 µM, first compound 0.1 µM): 106%
viability, T/C (second compound 0.0316 µM, first compound 0.000316 µM): 89%
viability, T/C (second compound 0.0316 µM, first compound 0.001 µM): 111%
viability, T/C (second compound 0.0316 µM, first compound 0.00316 µM): 91.9%
viability, T/C (second compound 0.0316 µM, first compound 0.01 µM): 97.4%
viability, T/C [1]: 95.5%
viability, T/C [2]: 102%
viability, T/C (second compound 0.1 µM, first compound 0.000316 µM): 105%
viability, T/C (second compound 0.1 µM, first compound 0.001 µM): 112%
viability, T/C (second compound 0.1 µM, first compound 0.00316 µM): 121%
viability, T/C (second compound 0.1 µM, first compound 0.01 µM): 94.9%
viability, T/C [3]: 109%
viability, T/C [4]: 90%
viability, T/C (second compound 0.316 µM, first compound 0.000316 µM): 77.2%
viability, T/C (second compound 0.316 µM, first compound 0.001 µM): 81.5%
viability, T/C (second compound 0.316 µM, first compound 0.00316 µM): 118%
viability, T/C (second compound 0.316 µM, first compound 0.01 µM): 81.4%
viability, T/C [5]: 92.1%
viability, T/C [6]: 102%
viability, T/C (second compound 1 µM, first compound 0.000316 µM): 82.9%
viability, T/C (second compound 1 µM, first compound 0.001 µM): 101%
viability, T/C (second compound 1 µM, first compound 0.00316 µM): 115%
viability, T/C (second compound 1 µM, first compound 0.01 µM): 81.3%
viability, T/C [7]: 85.8%
viability, T/C [8]: 80.3%

IC50 (second compound 0.00949 µM): > 10 µM
IC50 (second compound 0.03 µM): > 10 µM
IC50 (second compound 0.0949 µM): > 10 µM
IC50 (second compound 0.3 µM): > 10 µM
IC50 (second compound 0.949 µM): > 10 µM
IC50 (second compound 3 µM): > 10 µM
Structure (SMILES): C=CC(=O)N1CCN(c2nc(=O)n(-c3c(C)ccnc3C(C)C)c3nc(-c4c(O)cccc4F)c(F)cc23)C(C)C1 (stereo unspecified) + CCN1C(C(=O)NC23CCC(C(=O)O)(CC2)CC3)C(c2cccc(Cl)c2F)C2(C(=O)Nc3cc(Cl)ccc32)C12CCCCC2
viability, T/C (second compound 0.00949 µM, first compound 0.0316 µM): 147%
viability, T/C (second compound 0.00949 µM, first compound 0.1 µM): 110%
viability, T/C (second compound 0.00949 µM, first compound 0.316 µM): 97.8%
viability, T/C (second compound 0.00949 µM, first compound 1 µM): 108%
viability, T/C (second compound 0.00949 µM, first compound 3.16 µM): 99.4%
viability, T/C (second compound 0.00949 µM, first compound 10 µM): 82%
viability, T/C (second compound 0.03 µM, first compound 0.0316 µM): 112%
viability, T/C (second compound 0.03 µM, first compound 0.1 µM): 87.7%
viability, T/C (second compound 0.03 µM, first compound 0.316 µM): 115%
viability, T/C (second compound 0.03 µM, first compound 1 µM): 91.9%
viability, T/C (second compound 0.03 µM, first compound 3.16 µM): 75.2%
viability, T/C (second compound 0.03 µM, first compound 10 µM): 79.7%
viability, T/C (second compound 0.0949 µM, first compound 0.0316 µM): 92.7%
viability, T/C (second compound 0.0949 µM, first compound 0.1 µM): 106%
viability, T/C (second compound 0.0949 µM, first compound 0.316 µM): 85.3%
viability, T/C (second compound 0.0949 µM, first compound 1 µM): 99.5%
viability, T/C (second compound 0.0949 µM, first compound 3.16 µM): 89.6%
viability, T/C (second compound 0.0949 µM, first compound 10 µM): 87.8%
viability, T/C (second compound 0.3 µM, first compound 0.0316 µM): 88.7%
viability, T/C (second compound 0.3 µM, first compound 0.1 µM): 89.3%
viability, T/C (second compound 0.3 µM, first compound 0.316 µM): 112%
viability, T/C (second compound 0.3 µM, first compound 1 µM): 90%
viability, T/C (second compound 0.3 µM, first compound 3.16 µM): 106%
viability, T/C (second compound 0.3 µM, first compound 10 µM): 116%
viability, T/C (second compound 0.949 µM, first compound 0.0316 µM): 114%
viability, T/C (second compound 0.949 µM, first compound 0.1 µM): 78.7%
viability, T/C (second compound 0.949 µM, first compound 0.316 µM): 111%
viability, T/C (second compound 0.949 µM, first compound 1 µM): 70.8%
viability, T/C (second compound 0.949 µM, first compound 3.16 µM): 86.1%
viability, T/C (second compound 0.949 µM, first compound 10 µM): 70%
viability, T/C (second compound 3 µM, first compound 0.0316 µM): 86.9%
viability, T/C (second compound 3 µM, first compound 0.1 µM): 81.7%
viability, T/C (second compound 3 µM, first compound 0.316 µM): 87%
viability, T/C (second compound 3 µM, first compound 1 µM): 75.1%
viability, T/C (second compound 3 µM, first compound 3.16 µM): 74.9%
viability, T/C (second compound 3 µM, first compound 10 µM): 91.7%
